Results: publication PMC10287670, “A coiled-coil-based design strategy for the thermostabilization of G-protein-coupled receptors” (Scientific Reports, 2023)
pKd: −log10 of the molar value.

Target: T1, β3 adrenergic receptor (β3AR-cc3.1 chimera) (Homo sapiens, UniProt P13945, E36A/M86V/I125V/E126W/Y224A/F341M/Y346L)
T1 construct: gene ADRB3; Ala2 to Leu368 lacking Pro3 to Thr27, with Thermus thermophilus SRS antiparallel coiled coil cc3.1 inserted between Ala231 and Glu286 (replacing ICL3); N-terminal FLAG and C-terminal TwinStrep tags
Assay: radioligand saturation binding (SPA) on membranes of HEK-293S-GnTI- cells expressing β3AR-cc3.[…]

T1 sequence (P13945 2-368 E36A/M86V/I125V/E126W/Y224A/F341M/Y346L): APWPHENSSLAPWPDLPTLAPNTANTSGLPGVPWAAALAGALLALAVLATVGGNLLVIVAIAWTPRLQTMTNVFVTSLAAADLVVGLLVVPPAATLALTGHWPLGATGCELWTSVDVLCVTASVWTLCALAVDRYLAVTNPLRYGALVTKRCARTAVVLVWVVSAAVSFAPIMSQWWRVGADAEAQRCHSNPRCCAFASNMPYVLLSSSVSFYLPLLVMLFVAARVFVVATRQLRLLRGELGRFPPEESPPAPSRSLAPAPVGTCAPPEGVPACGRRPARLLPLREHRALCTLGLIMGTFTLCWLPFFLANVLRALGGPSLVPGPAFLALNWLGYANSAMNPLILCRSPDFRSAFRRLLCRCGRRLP

## CCCc1ccccc1OC[C@@H](O)CNC(C)C [[3H]-dihydroalprenolol]
  pKd: 6.82
